Patent publication US20030232851A1, “Viral treatment” (The Procter & Gamble Company, priority 1999, published 2003)
Converted amounts (≈) assume the structure as drawn. “And” between values parts separate entries of the source, which are not always exact repeats. Equal entries are not always repeated. Where two headings read alike, the source gives them in different places.

Legend:
[1] = system: HIV-1 cell line, CEMRF; format: cell-based; settings: for reverse transcriptase data: 7 μg/ml
Procedure: A microtiter-based reveres transcriptase (RT) reaction is utilized (Buckheit et al (1991) AIDS Research and Human Retroviruses 7:295-302). Tritiated thymidine triphosphate (NEN)(TTP) is resuspended in distilled water at 5 Ci/ml. Poly rA and oligo dT are prepared as a stock solution which is kept at −20° C. The RT reaction buffer is prepared fresh on a daily basis and consists of 125 μl 1M EGTA, 125 μl water, 125 μl Triton X-100, 50 μl Tris (pH 7.4), 50 μl 1 MDDT, and 40 μl 1M MgCl2. These three solutions are mixed together in a ratio of 1 part TTP, 2.5 parts poly rA:oligo dT, 2.5 parts reaction buffer and 4 parts distilled water. Ten microliters of this reaction mixture is placed in a round bottom microtiter place and 15 μl of virus containing supernatant is added and mixed. The plate is incubated at 37° C. for 60 minutes. Following reaction, the reaction volume is spotted onto filter mats, washed 6 times for 5 minutes each in a 5% sodium phosphate buffer, 2 times for 1 minute each in distilled water, 2 times for 1 minute each in 70% ethanol, and then dried. The dried filter mat is placed in a plastic sample bag, Betaplate scintillation fluid is added and the bag is heat sealed. Incorporated radioactivity is quantified utilizing a Wallac Microbeta scintillation counter.
Acute infection of most established human cell lines with HIV-1 results in the eventual establishment of a constitutive virus-producing chronically infected cell line. The cells can be passaged for long periods of time in culture without loss of virus production. These cells may be utilized to evaluate the effects of anti-HIV compounds on syncytium formation or to evaluate the effects of anti-HIV compounds on levels of virus production from these cells. […] Each of the cells contains an integrated HIV genome or provirus. Chronically infected CEM, H9 and U937 cell lines have been prepared and cultured by Southern Research Institute, Frederick Md. and are available from them.
CEM-SS cells chronically infected with HIV isolate, for example SKI (CEM-SKI) are cultured in RPMI1640 tissue culture medium supplemented with 10% fetal bovine serum and antibiotics. Selection is performed by culturing the cells in the presence of the compound to be tested in T25 flasks. CEM-SKI or other infected cells with no added drug are used as the control cells. Cells are allowed to grow to a density of approximately 1×10^6 cells/ml and are then passaged at a 1:10 dilution. […] The drug concentration in the flask is then increased two-fold and the cells maintained as above.
The cell populations contain integrated copies of the HIV genome and constitutively produce HIV at relatively high levels or are latently infected and only produce virus after stimulation with phorbol esters, tumor necrosis factor or IL6 (U1 and ACH2).
A long term in vitro study of 2-(2-thienyl)-imidazolo [4,5-b]pyridine against an HIV-1 cell line, CEMRF, was conducted at three different levels. […] CEMRF is a chronic HIV cell line.

[2] = system: hepatitis B, HEPG22.2.15; experiment: In vitro virus production test of hepatitis B, DNA copy number; format: cell-based
[3] = system: HEPG22.2.15; experiment: Hepatitis B test: toxicity values; format: cell-based
[4] = Kaposi's Sarcoma test: toxicity values; format: cell-based; design: Toxicity Values, samples 1-3 / Toxicity Values, average: scale not given here; settings: human, TPA-induced BCBL-1 cells (HHV8 cell line); read-out: TC50 (the source's name)
Procedure: (§1) The DNA copy number and the toxicity value were measured and compared with Cidofovir.

[5] = system: TPA-induced BCBL-1 cells; experiment: Kaposi's Sarcoma test: toxicity values; format: cell-based; design: Toxicity Values, samples 1-3 / Toxicity Values, average: scale not given here
Procedure: as §1

[6] = system: Cryptococcus neoformans; experiment: Anti-fungal activity (NCCLS M-27A based), Cryptococcus neoformans; format: cell-based
Procedure: It was active against cryptococcus neoformans and curvularai lunata. The cidal activity for the C. neoformans is high enough that it is clear […] against this yeast. This test was conducted using a method based upon NCCLS reference method M-27A published in 1997. Solvent, medium and growth controls were set-up with the tests. Once these were read to validate the test performance, the QC fungi were read to insure they had expected results. These steps validated the test system. DMSO was used as a drug-chemical solvent. […] The 90% cut-off is necessary for azoles, which are static and not cidal. The FMC or cidal level was determined by sub-culturing a sample from each tube showing no growth.

[7] = system: vero cells; experiment: Herpes simplex testing: toxicity (TC50); design: unit not given beside the values

c1csc(-c2nc3cccnc3[nH]2)c1 [2-(2-thienyl)-imidazolo [4,5-b]pyridine]
reverse transcriptase data ([1]; day 4): 6521
reverse transcriptase data ([1]; day 67): 9241
reverse transcriptase data ([1]; day 71): 8422
reverse transcriptase data ([1]; day 74): 8643
resistance developing ([1]; by day 186 at the 15 and 30 μg/ml level): no indication of resistance developing
reverse transcriptase data on continuation (in words) ([1]; run through 242 days): data remained consistent
DNA Copy Number, % virus control ([2]; 0.64 μg/ml): 75.3%
DNA Copy Number, mean ([2]; 0.64 μg/ml): 255.6 per 3 μl
DNA Copy Number, samples 1-3 ([2]; 0.64 μg/ml): 249.2 per 3 μl and 255.9 per 3 μl and 261.6 per 3 μl
DNA Copy Number, % virus control ([2]; 2 μg/ml): 39.8%
DNA Copy Number, mean ([2]; 2 μg/ml): 134.8 per 3 μl
DNA Copy Number, samples 1-3 ([2]; 2 μg/ml): 134.5 per 3 μl and 124.2 per 3 μl and 145.8 per 3 μl
DNA Copy Number, % virus control ([2]; 6.4 μg/ml): 8.2%
DNA Copy Number, mean ([2]; 6.4 μg/ml): 27.9 per 3 μl
DNA Copy Number, % virus control ([2]; 20 μg/ml): 0.8%
DNA Copy Number, mean ([2]; 20 μg/ml): 2.7 per 3 μl
DNA Copy Number, % virus control ([2]; 64 μg/ml): 0.1%
DNA Copy Number, mean ([2]; 64 μg/ml): 0.4 per 3 μl
DNA Copy Number, % virus control ([2]; 200 μg/ml): 0%
DNA Copy Number, mean ([2]; 200 μg/ml): 0.1 per 3 μl
IC50 ([2]; HepG2 2.2.15, first experiment): 1.6 µg/mL (≈ 7.95 µM)
IC50 ([2]; HepG2 2.2.15, replicate experiment): 10.7 µg/mL (≈ 53.2 µM)
Toxicity Values, % cell control ([3]; 0.64 μg/ml): 108.5%
Toxicity Values, mean ([3]; 0.64 μg/ml): 1.359
Toxicity Values, samples 1-3 ([3]; 0.64 μg/ml): 1.389 and 1.334 and 1.355
Toxicity Values, % cell control ([3]; 2 μg/ml): 101.1%
Toxicity Values, mean ([3]; 2 μg/ml): 1.266
Toxicity Values, samples 1-3 ([3]; 2 μg/ml): 1.121 and 1.246 and 1.432
Toxicity Values, % cell control ([3]; 6.4 μg/ml): 101.5%
Toxicity Values, mean ([3]; 6.4 μg/ml): 1.271
Toxicity Values, samples 1-3 ([3]; 6.4 μg/ml): 1.249 and 1.157 and 1.407
Toxicity Values, % cell control ([3]; 20 μg/ml): 30.7%
Toxicity Values, mean ([3]; 20 μg/ml): 0.385
Toxicity Values, samples 1-3 ([3]; 20 μg/ml): 0.404 and 0.389 and 0.361
Toxicity Values, % cell control ([3]; 64 μg/ml): 1.4%
Toxicity Values, mean ([3]; 64 μg/ml): 0.017
Toxicity Values, samples 1-3 ([3]; 64 μg/ml): 0.017 and 0.018
Toxicity Values, % cell control ([3]; 200 μg/ml): 1.4%
Toxicity Values, mean ([3]; 200 μg/ml): 0.017
Toxicity Values, samples 1-3 ([3]; 200 μg/ml): 0.018 and 0.017
TC50 ([3]; first experiment): 16.3 µg/mL (≈ 81 µM)
TC50 ([3]; replicate experiment): 16.8 µg/mL (≈ 83.5 µM)
CC50 [4]: 32.6 µM
Toxicity Values, % cell control ([5]; 0.64 μM): 110.5%
Toxicity Values, average ([5]; 0.64 μM): 1.160
Toxicity Values, samples 1-3 ([5]; 0.64 μM): 1.034 and 1.201 and 1.245
Toxicity Values, % cell control ([5]; 2 μM): 111.7%
Toxicity Values, average ([5]; 2 μM): 1.172
Toxicity Values, samples 1-3 ([5]; 2 μM): 1.155 and 1.182 and 1.179
Toxicity Values, % cell control ([5]; 6.4 μM): 111.5%
Toxicity Values, average ([5]; 6.4 μM): 1.170
Toxicity Values, samples 1-3 ([5]; 6.4 μM): 1.198 and 1.119 and 1.193
Toxicity Values, % cell control ([5]; 20 μM): 69.5%
Toxicity Values, average ([5]; 20 μM): 0.729
Toxicity Values, samples 1-3 ([5]; 20 μM): 0.701 and 0.706 and 0.782
Toxicity Values, % cell control ([5]; 64 μM): 1.5%
Toxicity Values, average ([5]; 64 μM): 0.016
Toxicity Values, samples 1-3 ([5]; 64 μM): 0.020 and 0.016 and 0.013
Toxicity Values, % cell control ([5]; 200 μM): 6.4%
Toxicity Values, average ([5]; 200 μM): 0.067
Toxicity Values, samples 1-3 ([5]; 200 μM): 0.068 and 0.067
MFC ([6]; Cryptococcus neoformans, cidal level): > 32 µg/mL
MIC ([6]; Cryptococcus neoformans, growth inhibited or reduced at least 90%): 0.03 µg/mL (≈ 0.149 µM)
activity against Cryptococcus neoformans (in words) ([6]; in vitro): active
TC50 [7]: 82.8
